Measured values taken from patent EP0550007A2, “Eseroline derivatives having anticholinesterase activity, a process for their preparation and pharmaceutical compositions containing them” (priority 1991, dated 1993).

Experiments:
[1] = antagonist effect on the stimulating effect of scopolamine (motor activity), ESE series; type: in vivo; conditions: scopolamine at the dose of 1 mg/kg
Experimental: This is countered by the oral administration of 2.5 mg of ESE001, ESE002, ESE003, ESE004.

[2] = antagonist activity against the stimulating effect of an anticholinergic substance (scopolamine); type: in vivo, mice SWISS; conditions: scopolamine subcutaneously injected, 1mg/kg, mice
Experimental: As the central anticholinergic stimulating agent the scopolamine was used subcutaneously injected to groups of 10 mice SWISS ([…]) at the dose of 1mg/kg.
At this dose the substance under question caused in all the animals a marked increase (80-100%) of the spontaneous motility, evaluated according to the above described method .

[3] = system: acetylcholinesterase activity (AchE); test: in vivo anticholinesterase activity (blood and brain, Ellman colorimetric method); design: species or system Wistar male rats; conditions: rats, oral, 1.5 to 4 mg/kg; sacrificed after 20, 60 and 120 minutes
Experimental: The derivatives, under question and physostigmine suspended in 2% carboxymethylcellulose, were orally administered to groups of Wistar male rats (average weight about 250 g).
On the base of the obtained results in preliminary trials, the doses utilized for the comparison were comprised beween 0.2 and 0.4 mg/kg for physostigmine and between 1.5 and 4 mg/kg for the eseroline derivatives under question.
The groups of treated rats were sacrificed after 20, 60, and 120 minutes and the blood and the brain of each animal were immediately cooled to 0°C and maintained at this temperature during the successive treatments.
The acetylcholinesterase activity (AchE) was determined by using the Ellman et al's quick colorimetric method (Biochem. Pharmacol., 7, 88, 1961) and it was expressed as enzymatic inhibition percentage.

mouse [4] = test: spontaneous motility (Dews' method modified according to Carminati); type: in vivo, mouse (SWISS strain)
Excerpt: The Dews' method was utilized, as modified according to Carminati (Arch. Int. Pharmacodyn. et Thér. 181, 68,1969).

[5] = effect on the succinylcholine curarization duration (corneal reflex); type: in vivo; conditions: i.v. administration of 0.6 mg/kg, rabbit; compared with physostigmine
mouse [6] = test: acute toxicity, oral LD50 in the mouse; conditions: oral, suspension in 2% carboxymethylcellulose, observation period 7 days
Excerpt: The mouse was used (Swiss strain having the average weight of the male mice being 26 g and 22 g that of the female mice: 5+5 animals per dose, observation period: 7days) The oral LD50 (suspension in 2% carboxymethylcellulose) were reported hereinbelow: Tab.2

Chain of acetylcholinesterase activity (AchE) (P37136 32-574 limits assumed): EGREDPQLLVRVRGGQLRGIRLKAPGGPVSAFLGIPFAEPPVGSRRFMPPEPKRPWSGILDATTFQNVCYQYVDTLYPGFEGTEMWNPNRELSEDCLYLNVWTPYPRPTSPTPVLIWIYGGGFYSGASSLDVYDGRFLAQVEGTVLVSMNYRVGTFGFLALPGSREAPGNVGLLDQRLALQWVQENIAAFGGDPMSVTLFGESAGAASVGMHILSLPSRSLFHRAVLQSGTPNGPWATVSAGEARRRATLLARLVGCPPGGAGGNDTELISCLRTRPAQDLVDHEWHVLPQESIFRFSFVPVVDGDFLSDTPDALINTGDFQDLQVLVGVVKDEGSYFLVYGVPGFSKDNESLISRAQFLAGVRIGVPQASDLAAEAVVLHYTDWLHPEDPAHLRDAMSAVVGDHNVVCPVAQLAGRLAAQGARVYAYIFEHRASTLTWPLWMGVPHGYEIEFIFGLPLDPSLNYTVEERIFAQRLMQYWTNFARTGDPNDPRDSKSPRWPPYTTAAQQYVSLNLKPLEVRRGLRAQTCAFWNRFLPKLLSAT

Row | Compound | increase in motor activity (stimulating effect) [1] [%] | increase of the spontaneous motility [2] | inhibitory activity of the acetylcholinesterase [3] | reduction of spontaneous motility (mouse [4]; oral, starting from minimal doses of 3.5-5 mg/kg, on average) [%] | minimal doses causing a marked reduction of spontaneous motility (mouse [4]; orally administered) [mg/kg] | anticholinesterase effect with respect to the succinylcholine curarizing action [5] | LD50 in the mouse (mouse [6])
1 | CN1[C@@H]2C[C@@H](OC(=O)[C@H](CO)c3ccccc3)C[C@H]1[C@@H]1O[C@@H]12 [scopolamine, reference compound] | 100 | 80-100% | – | – | – | – | –
2 | eseroline L-prolylpyrrolidinamide [MGT2] | – | – | evident dose dipendent and reversible inhibitory activity | ~-39 | 3.5 to 5 | the same anticholinesterase effect | 342,2 ± 11,16 mg/kg
